Reference: patent US7525013B2, “Soybean selection system based on AEC-resistance” (United Soybean Board, priority 2003, dated 2009)
pIC50: −log10 of the molar value.

Columns and labels:
[1] = tested on: larger plants grown in the green house; test: Weed control on larger plants grown in the green house; format: in vivo
Description: (§1) A major dicot and monocot weed of tobacco, pigweed (Amaranthus retroflexus) and giant foxtail (Setaria faberi) was used in addition to a model crop plant, tobacco. […] For larger plants grown in the green house 20 mM lysine and threonine or 40 mM lysine alone are needed for effective weed control. To increase uptake of these compounds, up to 0.2% Silwett (surfactant) was used. Silwett at 0.5% and above kills the plants. Silwett was not found to be a very effective surfactant. Studies with cultured cells and seedlings indicate that 100 μM levels of AEC are effective for selection.

[2] = tested on: DHPS enzyme, tryptophan53 (W) to Arginine53 (R); details: W53R DHPS; cited from earlier work
plant enzymes (DHPS) = details: read-out: IC50 for lysine; cited from earlier work
[3] = biological target: T1, DHPS enzyme, tryptophan53 (W) to Arginine53 (R) (Arabidopsis thaliana, UniProt Q9LZX6, W116R); details: W53R DHPS; cited from earlier work
T1 construct: host or cells: E. coli auxotroph AT997 (clones expressing the plant cDNA)

model system seeds = test: Germination of model system seeds on AEC containing agar plates; format: in vivo; details: 2 mM and 5 mM AEC agar plates
Description: (§2) An AEC selection system for soybean seeds with precise genetic changes and model system seeds (for rapid system validation) were germinated on 2 mM and 5 mM AEC containing agar plates. On the control plates without AEC all the seeds germinated, however only ˜10% of the soybean seeds germinated on 2 mM AEC plates and none on 5 mM plates.

[4] = tested on: pigweed (Amaranthus retroflexus); test: Herbicide spray study on pigweed; format: in vivo
Description: (§3) Spray studies have been done using major dicot and monocot weeds, pigweed (Amaranthus retroflexus) and giant foxtail (Setaria faberi) in addition to tobacco. These experiments using 7 to 10 day old seedlings show 20 mM AEC is lethal to pigweed, foxtail and tobacco.
as §1

[5] = tested on: Clones expressing the insensitive plant DHPS enzymes (E. coli auxotroph AT997); details: clones expressing lysine insensitive plant DHPS; cited from earlier work
[6] = tested on: E. coli auxotroph AT998 rescued with modified soybean DHPS gene; test: Growth of E. coli auxotroph rescued with modified soybean DHPS gene on 2-AEC plates; format: cell-based; details: minimal media plates with 0.5 mM 2-AEC
Source text: To test if the modified soy DHDPS can become insensitive to AEC and whether 18:1 desaturases can function as a 16:1 desaturase, experiments were conduced with E. Coli auxotrophs. A DHDPS auxotroph was obtained from the E. coli genetic center that can be rescued on medium without diaminopimelic acid when transformed with lysine insensitive DHPS and not with the wild type gene. Similarly, the E. coli auxotroph (fabA/fadR mutant) was obtained which can be complimented by C14 and C16 ACP desaturases but not by stearoyl-ACP desaturases. The primers required for cloning were designated and obtained from soybean genes. A suitable E. coli expression vector was obtained to express these genes in the respective auxotrophs.
It was shown in Arabidopsis, and populous deltoidsXpopulus tricho carpa modification of tryptophan53 (W) to Arginine53 (R) made the DHPS enzyme from these two plants insensitive to lysine concentrations up to 1 mM. E. coli auxotroph AT997 was rescued using these modified genes. This tryptophan residue is present in the consensus sequence MSWDEHI (SEQ ID NO: 6) in several plant DHPS genes (Vauterin et al.,2000). […] With our modified soybean DHPS gene we obtained similar results. We also targeted the tryptophan residue present in the consensus sequence MSWDEHI (SEQ ID NO: 6) in the soybean DHPS gene to convert it to arginine.

soybean seeds = test: Germination of soybean seeds on AEC containing agar plates; format: in vivo
Description: (§4) As a first step in the selection, different concentrations of AEC were used to see if it can kill the proliferating soybean somatic embryos as well as tobacco leaves and germinating tobacco and soybean seeds and germinating soybean somatic embryos. The effect of AEC is clearly seen in all these cases with varying concentrations. […] For proliferating soybean somatic embryo concentrations up to 1 mM AEC is needed along with 0.0075% methylated seed oil to kill them. To further confirm that AEC is acting on the above mentioned tissues, the E. coli DHDPS gene was cloned and put into the binary vector p1201 with the pea RBCs transit peptide under the CaMV 35S promoter.
as §2
(§5) To determine whether AEC can be developed as a selectable marker for soybeans the effect of different concentrations of AEC was examined on the germination of soybean seeds and matured soybean somatic embryos and on proliferating soybean somatic embryos. The effect of AEC is clearly seen in all these cases with varying concentrations. The effect of AEC was also examined as a herbicide against pigweed, foxtail and tobacco.

[7] = tested on: giant foxtail (Setaria faberi); test: Herbicide spray study on giant foxtail; format: in vivo
Description: as §3, §1

DHPS enzyme of E. coli = DHPS enzyme of E. coli (Escherichia coli, UniProt P0A6L2); details: E. coli DHPS versus plant enzymes; cited from earlier work
[8] = tested on: cultured cells and seedlings; test: Selection studies with cultured cells and seedlings; format: cell-based
Description: as §1

[9] = tested on: germinating soybean somatic embryos; test: Germination of soybean somatic embryos; format: cell-based
Description: as §4
The effect of AEC on soybean somatic embryos were checked at two stages (1) during the germination (2) during proliferation. The AEC effect during germination was very effective with concentrations above 100 μM were enough to prevent the germination completely.
as §5

[10] = tested on: proliferating soybean somatic embryos; test: Killing / growth inhibition of proliferating soybean somatic embryos; format: cell-based
Description: as §4
However, selection during proliferation is always a better way as selected clones can be proliferated and the untransformed embryos can be killed in the earlier stages itself. Unfortunately concentrations up to 20 mM were not sufficient to kill most of the proliferating embryos, though some of the embryos turned yellowish and developed brown spots, but many of them continued to proliferate like controls even after two changes of the medium, once every 15 days. To find out if surfactants can help in AEC absorption during proliferation a methylated seed oil based surfactant was used. […] It was determined that a 0.005% concentration is suitable to use with AEC. […] The cultures on plates with 20 mM AEC died in 4 days indicating solid medium selection can be useful.
as §3

tobacco seeds = test: Germination of tobacco seeds; format: in vivo; details: germinating tobacco seeds
Description: as §4

tobacco = test: Herbicide spray study on tobacco; format: in vivo
Description: as §3, §1

Chain of DHPS enzyme of E. coli (P0A6L2 whole entry): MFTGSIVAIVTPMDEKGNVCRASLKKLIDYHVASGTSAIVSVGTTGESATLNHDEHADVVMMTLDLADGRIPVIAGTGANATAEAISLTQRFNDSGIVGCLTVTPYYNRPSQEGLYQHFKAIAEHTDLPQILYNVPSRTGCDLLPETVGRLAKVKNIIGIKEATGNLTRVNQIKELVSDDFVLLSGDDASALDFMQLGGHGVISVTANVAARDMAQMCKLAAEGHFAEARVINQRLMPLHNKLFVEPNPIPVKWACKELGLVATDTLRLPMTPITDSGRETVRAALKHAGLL
T1 sequence (Q9LZX6 40-365 W116R): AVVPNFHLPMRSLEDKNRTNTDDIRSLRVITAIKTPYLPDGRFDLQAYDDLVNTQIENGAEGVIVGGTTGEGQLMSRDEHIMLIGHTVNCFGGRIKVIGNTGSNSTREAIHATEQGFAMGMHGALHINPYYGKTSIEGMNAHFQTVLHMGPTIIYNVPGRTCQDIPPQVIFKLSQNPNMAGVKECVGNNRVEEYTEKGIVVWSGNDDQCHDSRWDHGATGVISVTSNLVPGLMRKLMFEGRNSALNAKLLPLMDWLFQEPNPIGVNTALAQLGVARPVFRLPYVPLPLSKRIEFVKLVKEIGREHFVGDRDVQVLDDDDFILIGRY

NCCCC[C@H](N)C(=O)O [lysine]
concentration needed for effective weed control [1]: 40 mM
lysine concentrations to which the modified DHPS enzyme is insensitive [2]: up to 1 mM
pIC50 (plant enzymes (DHPS)): 5.00
lysine concentrations to which the modified DHPS enzyme is insensitive [3]: up to 1 mM

NCCSC[C@H](N)C(=O)O [AEC, S-2-aminoethyl-cysteine]
model system seeds germinated (model system seeds): Not a single model system seed germinated
concentration lethal to pigweed ([4]; 7 to 10 day old seedlings): 20 mM
concentration that effectively prevented the growth of pig weed ([4]; whole plant level): 20 mM
2-AEC concentration to which clones were resistant [5]: 2.5 mM
growth of rescued auxotroph [6]: grows well
soybean seeds germinated (soybean seeds; 2 mM AEC agar plates, all seeds germinated on control plates): ~10%
effect on germination of soybean seeds (soybean seeds; 2.5 mM AEC): quite effective
soybean seeds germinated (soybean seeds; 5 mM AEC agar plates): none
inhibition of seed germination (soybean seeds; qualitative): can inhibit
concentration lethal to foxtail ([7]; 7 to 10 day old seedlings): 20 mM
concentration sufficient to kill fox tail ([7]; whole plant level): 20 mM
fold less sensitive to AEC than plant enzymes (DHPS enzyme of E. coli): 50 fold
AEC levels effective for selection [8]: 100 µM
effect on germination of soybean somatic embryos ([9]; 100 μM AEC): quite effective
AEC concentration sufficient to completely inhibit germination of soybean somatic embryos ([9]; Example 1): 100 μm
inhibition of soybean somatic embryos (SSE) germination ([9]; qualitative): can inhibit
AEC concentration needed to kill proliferating soybean somatic embryos ([10]; along with 0.0075% methylated seed oil): up to 1 mM
AEC concentration sufficient to kill proliferating soybean somatic embryos ([10]; on 1/5th D20 medium (1/5 MS salts, 1/5 B5 vitamins, 20 mg/L 2,4-D)): 1.5 mM
time until cultures died ([10]; solid medium plates, 0.2% surfactant, 20 mM AEC): 4 days
state of proliferating embryo cultures ([10]; solid medium, 0.2% surfactant, 10 mM AEC, controls behaved the same): remained green with growth for two weeks before they died
AEC concentrations not sufficient to kill most of the proliferating embryos ([10]; without surfactant, two changes of medium, once every 15 days): up to 20 mM
AEC concentration required to completely inhibit germination of tobacco seeds (tobacco seeds): 2.5 mM
concentration lethal to tobacco (tobacco; 7 to 10 day old seedlings): 20 mM
concentration sufficient to kill tobacco (tobacco; whole plant level): 20 mM
